Key:
4T1 cells [1] = experiment: Confocal microscopy of fluorescence emission in control and Palbociclib-induced senescent cells; type: cell-based, mouse
Experimental: Mouse mammary carcinoma 4T1 cells were cultured in DMEM supplemented with 10 % FBS and incubated in 20 % O2 and 5 % CO2 at 37 °C. The cells were incubated with 5 µM of Palbociclib in DMEM for one week to induce the senescence process. Subsequently, the cells were seeded in a flat clear-bottom 96-well plate with a density of 6000 cells for senescent cells and 4000 in the control cells (without prior treatment with Palbociclib). After 24 hours, the cells were incubated with different concentrations of probe Cy7-Gal and its fluorophore (Cy7), with confocal microscopy images being acquired after 30 min of incubation. A more than 10-fold increase in fluorescence emission is observed between senescent cells treated with probe Cy7-Gal and untreated senescent cells (self-fluorescence signal).

4T1 mammary tumours = experiment: In vivo detection of senescence through urine and bladder fluorescence (IVIS and fluorescence spectroscopy) in mice bearing mammary tumours; design: species or system female BALB/cByJ mice
Experimental: Urine fluorescence measurements were carried out by taking 5 µl of urine and diluting it in distilled water to 100 µl. The samples were obtained by exciting at 535 nm and collecting the absorption maximum at 566 nm.
The Palbociclib was administered through an oral probe daily for 7 days at different concentrations of 10 mg / kg, 50 mg / kg and 100 mg / kg dissolved in 50 mM sodium lactate at pH 5 in order to induce senescence. […] The mice were monitored for 15 minutes post-injection of the probe in the IVIS® equipment following the accumulation of fluorophore Cy7 in the bladder after the hydrolysis of probe Cy7-Gal in the presence of senescent cells.

4T1 cell tumours = experiment: Ex vivo IVIS fluorescence of extracted tumours and organs; type: in vivo, female BALB/cByJ mice; conditions: after sacrifice, different Palbociclib groups (FIG. 8d)
Experimental: The mice were kept in the Prince Phillip Research Centre (Centro de Investigación Príncipe Felipe (CIPF)) following the recommendations of the Federation of European Laboratory Animal Science Associations (FELASA). All the processes applied on the animals were approved by the Technical Research Committee for Animal Welfare (Comité Técnico de Investigación para el bienestar de los animals, CElyBA). 4T1 mammary tumours were generated using 4T1 cells: The cells were cultured in DMEM supplemented with 10 % FBS and penicillin-streptomycin. To generate the formation of mammary tumours, the cells were trypsinised and counted with a LUNA ™ automated cell counter and injected by subcutaneous route into the left mammary of 28- to 34-week-old female BALB/CBY mice at a concentration of […] in a volume of 100 µl. The volume of the tumour was measured every two days with a gauge and calculated as V = (a x b2) / 2, wherein a is the longest and b is the shortest of two perpendicular diameters. […] The mice were monitored for 15 minutes post-injection of the probe in the IVIS® equipment following the accumulation of fluorophore Cy7 in the bladder after the hydrolysis of probe Cy7-Gal in the presence of senescent cells. […] The measurement of fluorescence in organs and tumours for the different groups of mice was performed with the IVIS technique.

4T1 cells [2] = experiment: Viability assay (CellTiter-GLO Luminescent Cell Viability Assay) in control and senescent cells; type: cell-based, mouse; conditions: 4T1 control and senescent cells, different concentrations, 24 h of incubation
Experimental: Mouse mammary carcinoma 4T1 cells were cultured in DMEM supplemented with 10 % FBS and incubated in 20 % O2 and 5 % CO2 at 37 °C. To obtain cellular senescence, the cells were incubated with 5 µM of Palbociclib in DMEM for one week. Subsequently, the cells were seeded in a flat clear-bottom 96-well plate with a density of 6000 cells for senescent cells and 4000 in the control cells. After 24 h, the cells were treated with different concentrations of probe Cy7-Gal and its fluorophore (Cy7). Viability measurements were obtained after 24 h of incubation using CellTiter-GLO Luminescent Cell Viability Assay as a developer.

`CC(=O)OC[C@H]1O[C@@H](Oc2ccc(/C=C/C3=[N+](CCCCS(=O)(=O)[O-])c4ccccc4C3(C)C)cc2/C=C/C2=[N+](CCCCS(=O)(=O)[O-])c3ccccc3C2(C)C)[C@H](OC(C)=O)[C@@H](OC(C)=O)[C@H]1OC(C)=O` [Cy7-Gal] was tested, and the “increase in fluorescence emission between senescent cells and control cells” value (4T1 cells [1]; both incubated in the presence of probe, compared with the more than 10-fold increase over untreated senescent cells, 30 min of incubation) was “slightly higher”, the “increase in fluorescence emission” value (4T1 cells [1]; senescent 4T1 cells (5 µM Palbociclib, one week) treated with probe vs untreated senescent cells (self-fluorescence signal), 30 min of incubation) was “more than 10 fold” and the “selectivity of the probe for detecting senescent cells” value (4T1 cells [1]; senescent vs control 4T1 cells) was “high selectivity”. The “expulsion from the organism through urine” value (4T1 mammary tumours; female mice urinated after coming out from under anaesthesia, monitored 15 minutes post-injection) was “expelled from the organism”, the “fluorescence emission of the urine samples vs degree of cellular senescence” value (4T1 mammary tumours; mice with 4T1 tumours given Palbociclib 10, 50 or 100 mg/kg orally for 7 days, then probe 23.3 mg/ml in 100 µl, IVIS and fluorescence spectroscopy) was “correspondence between the fluorescence emission of the urine samples and the degree of cellular senescence” and the “fluorescence signal in tumours and most representative organs (IVIS)” value (4T1 cell tumours) was “a signal is only observed in senescent tumours, and no signal is observed in the different organs”. For the same compound, the “toxicity (viability)” value (4T1 cells [2]) was “minimum toxicity”.

Reference: EP4043435A1, “COMPOUND FOR DETECTING SENESCENT CELLS AND USE THEREOF” (Universitat Politècnica de València, priority 2019, dated 2021)
